Consider two compounds from ChEMBL document CHEMBL5260859, “Discovery and structure-activity relationship study of 2-piperazinyl-benzothiazole derivatives as potent and selective PPARδ agonists” (Bioorg Med Chem, 2023).

SMILES strings stand for the structures.

What all share (format): cell-based
For experiment [1], the target named is T1, Peroxisome proliferator-activated receptor delta (Homo sapiens) (UniProt Q03181).
T1 sequence (whole entry): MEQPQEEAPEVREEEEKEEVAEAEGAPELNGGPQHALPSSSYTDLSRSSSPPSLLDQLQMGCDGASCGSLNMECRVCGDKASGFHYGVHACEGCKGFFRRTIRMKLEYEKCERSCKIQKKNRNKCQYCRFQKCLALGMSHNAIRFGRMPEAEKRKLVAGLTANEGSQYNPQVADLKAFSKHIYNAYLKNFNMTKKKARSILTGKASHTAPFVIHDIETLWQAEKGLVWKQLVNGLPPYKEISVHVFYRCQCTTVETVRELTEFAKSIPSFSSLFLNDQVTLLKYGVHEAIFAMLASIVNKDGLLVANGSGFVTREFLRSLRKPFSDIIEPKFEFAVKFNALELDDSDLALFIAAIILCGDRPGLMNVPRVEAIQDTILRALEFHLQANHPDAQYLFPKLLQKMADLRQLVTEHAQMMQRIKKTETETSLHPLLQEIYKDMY
Kind of experiment: Agonist activity at Gal4-fused human PPAR-delta ligand binding domain expressed in CHO-K1 cells assessed as receptor transactivation incubated for 24 to 48 hrs by luciferase reporter gene assay relative to control. The conditions noted are these: time lower 24.0 hrs, time upper […]. (In general: A reporter such as luciferase makes a cellular process visible.)

The target in experiment [2] is T2, Peroxisome proliferator-activated receptor alpha (Homo sapiens, UniProt Q07869).
T2 sequence (Q07869 whole entry): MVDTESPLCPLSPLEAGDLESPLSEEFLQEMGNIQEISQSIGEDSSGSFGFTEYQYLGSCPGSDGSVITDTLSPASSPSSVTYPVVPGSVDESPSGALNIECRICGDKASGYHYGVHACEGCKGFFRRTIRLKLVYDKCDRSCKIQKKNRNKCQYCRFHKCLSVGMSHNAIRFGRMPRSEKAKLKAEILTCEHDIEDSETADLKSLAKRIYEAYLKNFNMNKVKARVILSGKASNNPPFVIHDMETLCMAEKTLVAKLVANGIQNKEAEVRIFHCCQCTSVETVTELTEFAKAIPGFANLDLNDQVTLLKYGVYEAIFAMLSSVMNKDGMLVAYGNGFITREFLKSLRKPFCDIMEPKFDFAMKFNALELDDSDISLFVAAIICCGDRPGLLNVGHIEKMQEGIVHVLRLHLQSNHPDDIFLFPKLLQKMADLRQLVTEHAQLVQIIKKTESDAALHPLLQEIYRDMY
Kind of experiment: Agonist activity at Gal4-fused human PPAR-alpha ligand binding domain expressed in CHO-K1 cells assessed as receptor transactivation incubated for 24 to 48 hrs by luciferase reporter gene assay.

Experiment [3] has as its target T3, Peroxisome proliferator-activated receptor delta (Mus musculus, UniProt P35396).
T3 sequence (P35396 whole entry): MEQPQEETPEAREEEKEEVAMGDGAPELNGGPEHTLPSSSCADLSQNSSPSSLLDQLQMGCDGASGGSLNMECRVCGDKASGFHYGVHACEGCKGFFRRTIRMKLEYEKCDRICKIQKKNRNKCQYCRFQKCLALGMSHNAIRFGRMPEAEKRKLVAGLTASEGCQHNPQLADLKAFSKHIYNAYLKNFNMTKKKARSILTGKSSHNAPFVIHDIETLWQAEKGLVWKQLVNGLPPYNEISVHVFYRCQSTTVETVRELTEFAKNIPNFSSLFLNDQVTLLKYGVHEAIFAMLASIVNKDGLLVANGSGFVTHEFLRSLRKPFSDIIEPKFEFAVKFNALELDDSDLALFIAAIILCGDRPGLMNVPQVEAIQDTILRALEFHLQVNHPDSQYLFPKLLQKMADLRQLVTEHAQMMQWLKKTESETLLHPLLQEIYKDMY
Kind of experiment: Agonist activity at Gal4-fused mouse PPAR-delta ligand binding domain expressed in CHO-K1 cells assessed as receptor transactivation incubated for 24 to 48 hrs by luciferase reporter gene assay.

The target in experiment [4] is T4, Peroxisome proliferator-activated receptor delta (Mus musculus) (UniProt P35396).
T4 sequence (whole entry): T3 sequence (P35396 whole entry)
Kind of experiment: Agonist activity at Gal4-fused mouse PPAR-delta ligand binding domain expressed in CHO-K1 cells assessed as receptor transactivation incubated for 24 to 48 hrs by luciferase reporter gene assay relative to control. Conditions: time lower 24.0 hrs, time upper […].

For experiment [5], the target named is T5, Peroxisome proliferator-activated receptor alpha (Mus musculus) (UniProt P23204).
T5 sequence (whole entry): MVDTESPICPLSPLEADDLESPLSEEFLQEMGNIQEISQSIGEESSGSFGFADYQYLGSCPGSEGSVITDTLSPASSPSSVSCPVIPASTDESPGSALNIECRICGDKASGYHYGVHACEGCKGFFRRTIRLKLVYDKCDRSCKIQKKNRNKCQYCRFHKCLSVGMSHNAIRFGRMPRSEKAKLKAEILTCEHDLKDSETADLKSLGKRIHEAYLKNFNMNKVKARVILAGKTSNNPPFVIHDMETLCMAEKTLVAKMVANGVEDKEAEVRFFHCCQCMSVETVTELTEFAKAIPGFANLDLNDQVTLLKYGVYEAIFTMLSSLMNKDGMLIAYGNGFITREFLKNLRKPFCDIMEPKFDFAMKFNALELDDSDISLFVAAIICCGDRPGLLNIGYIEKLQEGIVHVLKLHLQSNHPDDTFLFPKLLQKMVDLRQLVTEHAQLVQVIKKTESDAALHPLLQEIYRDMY
Kind of experiment: Agonist activity at Gal4-fused mouse PPAR-alpha ligand binding domain expressed in CHO-K1 cells assessed as receptor transactivation incubated for 24 to 48 hrs by luciferase reporter gene assay relative to control. The conditions noted are these: time lower 24.0 hrs, time upper […].

For experiment [6], the species on record is Mus musculus. Kind of experiment: Selectivity ratio of EC50 for agonist activity at Gal4-fused mouse PPAR-alpha ligand binding domain expressed in CHO-K1 cells to EC50 for agonist activity at Gal4-fused mouse PPAR-delta ligand binding domain expressed in CHO-K1 cells.
Experiment [7] concerns the target T6, Peroxisome proliferator-activated receptor gamma (Mus musculus, UniProt P37238).
T6 sequence (P37238 whole entry): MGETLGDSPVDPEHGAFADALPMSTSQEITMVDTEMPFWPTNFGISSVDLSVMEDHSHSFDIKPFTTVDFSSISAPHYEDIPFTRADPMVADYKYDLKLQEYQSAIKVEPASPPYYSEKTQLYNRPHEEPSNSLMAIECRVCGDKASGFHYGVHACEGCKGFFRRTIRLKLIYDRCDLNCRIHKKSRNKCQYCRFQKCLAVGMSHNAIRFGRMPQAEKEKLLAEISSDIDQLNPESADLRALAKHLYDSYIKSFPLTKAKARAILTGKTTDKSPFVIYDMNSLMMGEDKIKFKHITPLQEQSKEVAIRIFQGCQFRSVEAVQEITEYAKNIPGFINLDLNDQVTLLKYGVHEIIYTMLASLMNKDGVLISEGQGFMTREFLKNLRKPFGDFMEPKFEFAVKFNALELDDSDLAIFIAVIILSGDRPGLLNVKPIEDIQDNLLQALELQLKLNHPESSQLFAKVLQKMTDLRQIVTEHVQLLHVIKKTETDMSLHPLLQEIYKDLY
Kind of experiment: Agonist activity at Gal4-fused mouse PPAR-gamma ligand binding domain expressed in CHO-K1 cells assessed as receptor transactivation incubated for 24 to 48 hrs by luciferase reporter gene assay.

Experiment [8] is filed under the species Mus musculus. Kind of experiment: Selectivity ratio of EC50 for agonist activity at Gal4-fused mouse PPAR-gamma ligand binding domain expressed in CHO-K1 cells to EC50 for agonist activity at Gal4-fused mouse PPAR-delta ligand binding domain expressed in CHO-K1 cells.

`Cc1cc(CC(=O)O)cc(CN2CCN(c3nc4ccc(C(F)(F)F)cc4s3)[C@@H](C)C2)c1`: the figures for the Emax in experiment [1], in experiment [4] and in experiment [5] were 14%, 20.4% and 9%, respectively. In addition, the half-maximal effective concentration (EC50) – broadly, the midpoint of the concentration-response curve – in experiment [2] turned out to be 1.8 µM; in experiment [3], 0.039 µM; in experiment [7], 2.7 µM. Besides, the Ratio EC50 worked out at 100 in the experiment filed under Mus musculus [6] and 69 in the experiment filed under Mus musculus [8].
On to `Cc1cc(CC(=O)O)cc(CN2CCN(c3nc4ccc(C(F)(F)F)cc4s3)[C@H](C)C2)c1`, for which the Emax came to 13.5% in experiment [1], 20.8% in experiment [4] and 1.7% in experiment [5]. Moreover, the half-maximal effective concentration (EC50) was determined as 1.6 µM in experiment [2], 0.024 µM in experiment [3] and 1.8 µM in experiment [7]. The values for the Ratio EC50 in the experiment listed under Mus musculus [6] and in the experiment listed under Mus musculus [8] were 152 and 74, respectively.
